A short description of data set [1]: TM/TG ratio (crystallization tendency). Format: physicochemical. Conditions: based on the most stable crystalline phase known.
Data set [2] is described as follows: Aqueous solubility. The data set is classed as physicochemical. Particulars: aqueous medium (not further specified).
The conditions of data set [3]: thermodynamic from solid.
Data set [4] is described as follows: log D of Compound 1. Format: physicochemical. Particulars: pH 7, pH=7.

This is an account of results in patent publication US20160339074A1, “PHARMACEUTICAL COMPOSITION OF SELECTIVE HCV NS3/4A INHIBITORS” (MERCK SHARP & DOHME CORP., priority 2014, published 2016).

Each structure is given as a SMILES string. ≈ marks a conversion by molar mass, not a printed value. Read-outs that look alike come from different tables or passages of the source.

Broadly, the solubility is the dissolved amount per volume that the medium holds. High values mean much dissolved substance, low ones little dissolved substance. As a reminder, the logD is the decadic logarithm of the distribution of all forms, ionised or not, between an organic phase and buffer at a given pH. A higher logD goes with a more lipophilic compound.

For the compound `C=C[C@@H]1C[C@]1(NC(=O)[C@@H]1C[C@@H]2CN1C(=O)[C@H](C(C)(C)C)NC(=O)O[C@@H]1C[C@H]1CCCCCc1nc3ccc(OC)cc3nc1O2)C(=O)NS(=O)(=O)C1CC1` [Compound 1, (1aR,5S,8S,10R,22aR)-5-tert-butyl-N-{(1R,2S)-1-[(cyclopropylsulfonyl)carbamoyl]-2-ethenylcyclopropyl}-14-methoxy-3,6-dioxo-1,1a,3,4,5,6,9,10,18,19,20,21,22,22a-tetradecahydro-8H-7,10-methanocyclopropa[18,19][1,10,3,6]dioxadiazacyclononadecino[11,12-b]quinoxaline-8-carboxamide], the TM/TG ratio in data set [1] is reported as 1.12. In data set [2], this compound showed a solubility below 50 µg/mL. In addition, the solubility at 2 h is 50 µg/mL (≈ 65.2 µM) in data set [3] (simulated fasted state intestinal fluid, fassif) and below 3 µg/mL in data set [3] (simulated gastric fluid). The logD in data set [4] amounted to 3.
